Where two headings read alike, the source gives them in different places.
How the values were obtained:
NET = NET (Rattus norvegicus (Rat), UniProt Q9WTR4); assay: Norepinephrine Transporter Binding Assay ([3H]Nisoxetine, rat frontal cortex membranes)
Procedure: Binding affinities of all compounds were evaluated at the DAT, SERT, and NET in rat brain membranes using previously described methods:
Norepinephrine Transporter Binding Assay. Brains from male Sprague-Dawley rats weighing 200-225 g (Taconic Labs, Germantown, N.Y.) were removed, frontal cortex dissected and rapidly frozen. Membranes were prepared by homogenizing tissues in 20 volumes (w/v) of 50 mM Tris containing 120 mM NaCl and 5 mM KCl, (pH 7.4 at 25° C.), using a Brinkman Polytron and centrifuged at 50,000×g for 10 min at 4° C. The resulting pellet was resuspended in buffer, recentrifuged and resuspended in buffer to a concentration of 80 mg/mL. Ligand binding experiments were conducted in assay tubes containing 0.5 mL buffer for 60 min at 0-4° C. […] Nonspecific binding was determined using 1 mM desipramine. Incubations were terminated by rapid filtration through Whatman GF/B filters, presoaked in 0.05% polyethylenimine, using a Brandel R48 filtering manifold (Brandel Instruments Gaithersburg, Md.). The filters were washed twice with 3 mL cold buffer and transferred to scintillation vials. Beckman Ready Value (3.0 mL) was added and the vials were counted using a Beckman 6000 liquid scintillation counter (Beckman Coulter Instruments, Fullerton, Calif.). […] All compounds were tested as racemic mixtures.

human DAT wild type = human DAT wild type (Homo sapiens (Human), UniProt Q01959); assay: [3H]DA uptake inhibition in intact COS7 cells, hDAT WT; type: cell-based; details: [3H]DA uptake inhibition potency, read-out: hDAT WT Ki [S.E. interval]
human DAT A480T mutant = human DAT A480T mutant (Homo sapiens (Human), UniProt Q01959, A480T); assay: [3H]DA uptake inhibition in intact COS7 cells, hDAT A480T; details: read-out: hDAT A480T Ki [S.E. interval], [3H]DA uptake inhibition potency
Chain of human DAT A480T mutant (Q01959 whole entry A480T): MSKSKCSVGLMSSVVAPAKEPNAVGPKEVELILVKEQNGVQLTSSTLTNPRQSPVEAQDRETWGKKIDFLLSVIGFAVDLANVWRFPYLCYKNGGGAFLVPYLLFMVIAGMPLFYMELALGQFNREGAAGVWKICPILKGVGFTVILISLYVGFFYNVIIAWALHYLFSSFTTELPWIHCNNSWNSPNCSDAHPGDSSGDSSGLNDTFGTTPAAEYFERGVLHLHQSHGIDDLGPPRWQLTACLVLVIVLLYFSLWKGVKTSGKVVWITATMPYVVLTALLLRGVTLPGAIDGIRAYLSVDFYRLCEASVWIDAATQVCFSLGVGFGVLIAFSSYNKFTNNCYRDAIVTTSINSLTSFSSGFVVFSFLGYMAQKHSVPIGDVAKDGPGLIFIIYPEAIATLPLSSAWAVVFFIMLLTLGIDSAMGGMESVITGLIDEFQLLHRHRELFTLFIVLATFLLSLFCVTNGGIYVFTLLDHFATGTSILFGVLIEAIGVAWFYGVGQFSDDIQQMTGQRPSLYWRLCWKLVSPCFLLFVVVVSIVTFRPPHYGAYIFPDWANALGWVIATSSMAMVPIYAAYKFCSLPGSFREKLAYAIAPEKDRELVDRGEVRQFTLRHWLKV

human SERT T497A mutant = human SERT T497A mutant (Homo sapiens (Human), UniProt P31645, T497A); type: cell-based; details: read-out: hSERT T497A KM
Excerpt: (§1) Molecular Pharmacology Site-directed mutagenesis: Synthetic cDNA encoding the human DAT (synDAT) were subcloned into pcDNA3 (Invitrogen, Carlsbad, Calif.). cDNA encoding the human SERT (hSERT) was cloned into the pUbilz expression vector. Mutations herein were generated by the QuickChange method (adapted from Stratagene, La Jolla, Calif.) and confirmed by restriction enzyme mapping and DNA sequencing. Positive clones were amplified by transformation into XL1 blue competent cells (Stratagene) and positive colony picked and grown in LB media over night at 37° C. in an orbital incubator (Infors) @ 200 rpm. Plasmids were harvested using the maxi prep kit provided by Qiagen according to the manufacturer's manual.
(§2) Uptake assays were performed essentially as previously described to Cha, J. H.; Zou, M. F.; Adkins, E. M.; Rasmussen, S. G.; Loland, C. J.; Schoenenberger, B.; Gether, U.; Newman, A. H. Rhodamine-Labeled 2beta-Carbomethoxy-3beta-(3,4-Dichlorophenyl)Tropane Analogues as High-Affinity Fluorescent Probes for the Dopamine Transporter. […] Transiently transfected COS-7 cells were plated in 12-well (3*10^5 cells/well) or 24-well dishes (10^5 cells/well) coated with poly-ornithine to achieve an uptake level of no more than 10% of total added radioligand. The uptake assays were carried out 2 days after transfection. Prior to the experiment, the cells were washed once in 500 μl of uptake buffer buffer (25 mM 4-(2-hydroxyethyl)-1-piperazineethanesulfonic acid (HEPES), 130 mM NaCl, 5.4 mM KCl, 1.2 mM CaCl2, 1.2 mM MgSO4, 1 mM L-ascorbic acid, 5 mM D-glucose, and 1 μM of the catechol-O-methyltransferase inhibitor Ro 41-0960 (Sigma), pH 7.4) at room temperature (RT). […] All samples were transferred to 24-well counting plates and 500 μL (or 600 μL) of Opti-phase Hi Safe 3 scintillation fluid (Perkin Elmer) was added followed by counting of the plates in a Wallac Tri-Lux β-scintillation counter (Perkin Elmer). Nonspecific uptake was determined in the presence of 5 μM paroxetine for hSERT and 50 μM nomifensine for hDAT expressing cells. All determinations were performed in triplicate.

human SERT wild type = human SERT wild type (Homo sapiens (Human), UniProt P31645); type: cell-based; details: read-out: hSERT WT KM
Excerpt: as §1, §2

Chain of NET (Q9WTR4 entry or part of it): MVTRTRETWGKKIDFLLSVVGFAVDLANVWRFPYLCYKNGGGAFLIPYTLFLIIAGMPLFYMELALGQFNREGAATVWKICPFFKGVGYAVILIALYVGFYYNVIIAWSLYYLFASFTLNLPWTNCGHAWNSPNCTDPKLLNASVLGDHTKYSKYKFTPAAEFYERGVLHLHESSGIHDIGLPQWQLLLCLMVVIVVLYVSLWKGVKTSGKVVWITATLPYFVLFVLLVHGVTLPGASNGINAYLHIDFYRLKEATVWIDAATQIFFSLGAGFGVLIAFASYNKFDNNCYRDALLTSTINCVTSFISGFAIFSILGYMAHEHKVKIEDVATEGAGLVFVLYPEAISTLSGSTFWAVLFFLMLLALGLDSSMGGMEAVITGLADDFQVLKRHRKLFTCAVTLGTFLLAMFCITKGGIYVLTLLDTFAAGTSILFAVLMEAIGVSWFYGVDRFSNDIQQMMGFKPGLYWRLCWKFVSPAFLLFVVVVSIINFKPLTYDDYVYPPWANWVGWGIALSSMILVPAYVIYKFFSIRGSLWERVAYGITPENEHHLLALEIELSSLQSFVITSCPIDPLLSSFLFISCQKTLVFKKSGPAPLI

Row | SMILES | Ki (NET) [µM] | other results
1 | CC(O)CN1CCN(CCSC(c2ccccc2)c2ccccc2)CC1 (racemic) [Compound 9a, 1-(4-(2-(Benzhydrylthio)ethyl)piperazin-1-yl)propan-2-ol] | 44.5 ± 2.4 | –
2 | OC(Cc1ccccc1)CN1CCN(CCSC(c2ccccc2)c2ccccc2)CC1 (racemic) [Compound 9g, 1-(4-(2-(Benzhydrylthio)ethyl)piperazin-1-yl)-3-phenylpropan-2-ol] | 1.43 ± 0.118 | –
3 | OC(Cc1ccccc1)CN1CCN(CCSC(c2ccc(F)cc2)c2ccc(F)cc2)CC1 (racemic) [Compound 9j, 1-(4-(2-((Bis(4-fluorophenyl)methyl)thio)ethyl)piperazin-1-yl)-3-phenylpropan-2-ol] | 1.95 ± 0.227 | –
4 | CC(O)CN1CCN(CC[S+]([O-])C(c2ccccc2)c2ccccc2)CC1 (racemic) [Compound 10a, 1-(4-(2-(Benzhydrylsulfinyl)ethyl)piperazin-1-yl)propan-2-ol] | > 100 | –
5 | CC(O)CN1CCN(CC[S+]([O-])C(c2ccc(F)cc2)c2ccc(F)cc2)CC1 (racemic) [Compound 10d, 1-(4-(2-((Bis(4-fluorophenyl)methyl)sulfinyl)ethyl)piperazin-1-yl)propan-2-ol] | > 100 | –
6 | [O-][S+](CCN1CCN(CC(O)Cc2ccccc2)CC1)C(c1ccccc1)c1ccccc1 (racemic) [Compound 10g, 1-(4-(2-(Benzhydrylsulfinyl)ethyl)piperazin-1-yl)-3-phenylpropan-2-ol] | 25.3 ± 2.04 | –
7 | NC(=O)CSC(c1ccccc1)c1ccccc1 [Compound 2a, 2-(Benzhydrylthio)acetamide] | > 100 | –
8 | NC(=O)CSC(c1cccc(Cl)c1)c1cccc(Cl)c1 [Compound 2e, 2-((Bis(3-chlorophenyl)methyl)thio)acetamide] | 34 | –
9 | CNC(=O)CSC(c1ccccc1)c1ccccc1 [Compound 2g, 2-(Benzhydrylthio)-N-methylacetamide] | 27.3 | Ki (human DAT wild type): 5.5 µM; Ki (human DAT A480T mutant): 3.6 µM
10 | C=CCNC(=O)CSC(c1ccccc1)c1ccccc1 [Compound 2j, N-Allyl-2-(benzhydrylthio)acetamide] | > 230 | –
11 | CCCNC(=O)CSC(c1ccccc1)c1ccccc1 [Compound 2k, 2-(Benzhydrylthio)-N-propylacetamide] | 55.9 | –
12 | CCCNC(=O)CSC(c1ccc(F)cc1)c1ccc(F)cc1 [Compound 2l, 2-((Bis(4-fluorophenyl)methyl)thio)-N-propylacetamide] | 61.7 | –
13 | CCCNC(=O)CSC(c1ccc(Br)cc1)c1ccc(Br)cc1 [Compound 2n, 2-((Bis(4-bromophenyl)methyl)thio)-N-propylacetamide] | 10.6 | –
14 | O=C(CSC(c1ccccc1)c1ccccc1)NCC1CC1 [Compound 2o, 2-(Benzhydrylthio)-N-(cyclopropylmethyl)acetamide] | > 100 | –
15 | O=C(CSC(c1ccc(F)cc1)c1ccc(F)cc1)NCC1CC1 [Compound 2p, 2-((Bis(4-fluorophenyl)methyl)thio)-N-(cyclopropylmethyl)acetamide] | 57.6 | –
16 | O=C(CSC(c1ccc(Br)cc1)c1ccc(Br)cc1)NCC1CC1 [Compound 2q, 2-((Bis(4-bromophenyl)methyl)thio)-N-(cyclopropylmethyl)acetamide] | > 100 | –
17 | CCCCNC(=O)CSC(c1ccccc1)c1ccccc1 [Compound 2r, 2-(Benzhydrylthio)-N-butylacetamide] | > 0.1 | –
18 | O=C(CSC(c1ccc(F)cc1)c1ccc(F)cc1)NCCCc1ccccc1 [Compound 2v, 2-((Bis(4-fluorophenyl)methyl)thio)-N-(3-phenylpropyl)acetamide] | > 100 | –

Row | SMILES | Ki (NET) [µM] | other results
19 | O=C(CSC(c1ccc(Br)cc1)c1ccc(Br)cc1)NCCCc1ccccc1 [Compound 2x, 2-((Bis(4-bromophenyl)methyl)thio)-N-(3-phenylpropyl)acetamide] | 36.3 | –
20 | O=C(CSC(c1ccc(Br)cc1)c1ccc(Br)cc1)NCCCCc1ccccc1 [Compound 2z, 2-((Bis(4-bromophenyl)methyl)thio)-N-(4-phenylbutyl)acetamide] | > 100 | NET Ki (nM) ± S.E.M. (NET; Table 1, thioacetamide and sulfinylacetamide analogs, rat brain membranes, racemic mixtures): no displacement
21 | Cc1ccc(C(c2ccc(C)cc2)[S+]([O-])CC(N)=O)cc1 (stereo not shown) [Compound 3a, 2-((Di-p-tolylmethyl)sulfinyl)acetamide] | > 100 | –
22 | NC(=O)C[S+]([O-])C(c1cccc(F)c1)c1cccc(F)c1 (stereo not shown) [Compound 3c, 2-((Bis(3-fluorophenyl)methyl)sulfinyl)acetamide] | > 100 | –
23 | NC(=O)C[S+]([O-])C(c1cccc(Cl)c1)c1cccc(Cl)c1 (stereo not shown) [Compound 3d, 2-((Bis(3-chlorophenyl)methyl)sulfinyl)acetamide] | > 100 | –
24 | NC(=O)C[S+]([O-])C(c1ccccc1)c1cccc(Br)c1 (stereo not shown) [Compound 3e, 2-(((3-Bromophenyl)(phenyl)methyl)sulfinyl)acetamide] | > 100 | –
25 | CNC(=O)C[S+]([O-])C(c1ccccc1)c1ccccc1 (stereo not shown) [Compound 3f, 2-(Benzhydrylsulfinyl)-N-methylacetamide] | > 100 | –
26 | O=C(C[S+]([O-])C(c1ccc(Br)cc1)c1ccc(Br)cc1)NCCCc1ccccc1 (stereo not shown) [Compound 3g, 2-(Bis(4-bromophenyl)methylsulfinyl)-N-(3-phenylpropyl)acetamide] | > 100 | –
27 | CCCCNCCSC(c1ccccc1)c1ccccc1 [Compound 4e, N-(2-(benzhydrylthio)ethyl)butan-1-amine] | 11.5 | –
28 | c1ccc(CCCNCCSC(c2ccccc2)c2ccccc2)cc1 [Compound 4f, N-(2-(benzhydrylthio)ethyl)-3-phenylpropan-1-amine] | 3.91 | –
29 | NCCc1c[nH]c2ccc(O)cc12 [Compound 5-HT, 5-hydroxytryptamine, reference compound] | – | Km (human SERT T497A mutant): 1.09 µM; Km (human SERT wild type): 0.52 µM
30 | CCCCNCC[S+]([O-])C(c1ccccc1)c1ccccc1 (stereo not shown) [Compound 5b, N-(2-(benzhydrylsulfinyl)ethyl)butan-1-amine] | > 140 | –
31 | [O-][S+](CCNCCCc1ccccc1)C(c1ccc(F)cc1)c1ccc(F)cc1 (stereo not shown) [Compound 5c, N-(2-((bis(4-fluorophenyl)methyl)sulfinyl)ethyl)-3-phenylpropan-1-amine] | 3.28 | –
32 | [O-][S+](CCNCCCc1ccccc1)C(c1ccc(Cl)cc1)c1ccc(Cl)cc1 (stereo not shown) [Compound 5d, N-(2-((bis(4-chlorophenyl)methyl)sulfinyl)ethyl)-3-phenylpropan-1-amine] | 5.8 | –
33 | c1ccc(CCCN2CCN(CCSC(c3ccccc3)c3ccccc3)CC2)cc1 [Compound 7a, 1-(2-(Benzhydrylthio)ethyl)-4-(3-phenylpropyl)piperazine] | – | Ki (NET; Table 5, piperazinyl derivatives, rat brain membranes, read-out: NET Ki ± SEM): 0.988 ± 0.0228 µM
34 | Fc1ccc(C(SCCN2CCN(CCCc3ccccc3)CC2)c2ccc(F)cc2)cc1 [Compound 7b, 1-(2-((Bis(4-fluorophenyl)methyl)thio)ethyl)-4-(3-phenylpropyl)piperazine] | 1.89 ± 0.116 | –
35 | [O-][S+](CCN1CCN(CCCc2ccccc2)CC1)C(c1ccccc1)c1ccccc1 (stereo not shown) [Compound 8a, 1-(2-(Benzhydrylsulfinyl)ethyl)-4-(3-phenylpropyl)piperazine] | 5.54 ± 0.808 | –
36 | [O-][S+](CCN1CCN(CCCc2ccccc2)CC1)C(c1ccc(F)cc1)c1ccc(F)cc1 (stereo not shown) [Compound 8b, 1-(2-((Bis(4-fluorophenyl)methyl)sulfinyl)ethyl)-4-(3-phenylpropyl)piperazine] | 4.28 ± 0.343 | –

Source: patent publication US10913711B2, “Potent and selective inhibitors of monoamine transporters; method of making; and use thereof” (priority 2013, dated 2021)
